Tests used:
[1] = system: HIV-IIIb; assay: Antiviral assay in MT4 cells; format: cell-based; details: Human immunodeficiency virus 1, 120 h; MT4 cells infected with HIV-IIIb, 5 days incubation, CellTiter-Glo; average over time; read-out: EC50 nM in MT-4
Experimental: (§1) For the antiviral assay utilizing MT4 cells, 0.4 μL of 189× test concentration of 3-fold serially diluted compound in DMSO was added to 40 μL of cell growth medium (RPMI 1640, 10% FBS, 1% penicillin/streptomycin, 1% L-Glutamine, 1% HEPES) in each well of 384-well assay plates (10 concentrations) in quadruplicate. 1 mL aliquots of 2×10^6 MT4 cells are pre-infected for 1 and 3 hours respectively at 37° C. with 25 μL (MT4) or of either cell growth medium (mock-infected) or a fresh 1:250 dilution of an HIV-IIIb concentrated ABI stock (0.004 m.o.i. for MT4 cells). Infected and uninfected cells are diluted in cell growth medium and 35 μL of 2000 (for MT4) cells is added to each well of the assay plates. Assay plates were then incubated in a 37° C. incubator. After 5 days of incubation, 25 μL of 2× concentrated CellTiter-Glo™ Reagent (catalog # G7573, Promega Biosciences, Inc., Madison, Wis.) was added to each well of the assay plate. Cell lysis was carried out by incubating at room temperature for 2-3 minutes, and then chemiluminescence was read using the Envision reader (PerkinElmer).

[2] = in vitro; format: cell-based; details: human
Experimental: as §1

Row | SMILES | EC50 [1] [nM] | CC50 at 5 days [2] [nM]
1 | O=C(NCc1ccc(F)cc1F)c1cn2c(c(O)c1=O)C(=O)N1[C@H](C2)[C@@H]2C[C@H]1[C@H]1C[C@@H]21 [Compound 8, (1aS,2S,10aS,11R,11aR)-N-(2,4-difluorobenzyl)-5-hydroxy-4,6-dioxo-1a,2,4,6,10,10a,11,11a-octahydro-1H-2,11-methanocyclopropa[4,5]pyrido[1,2-a]pyrido[1,2-d]pyrazine-7-carboxamide] | 1.4 | 8840
2 | O=C(NCc1ccc(F)cc1F)c1cn2c(c(O)c1=O)C(=O)N1C(C2)O[C@@H]2C[C@H]1[C@@H]1[C@H]2C1(F)F (stereo partly drawn) [Compound 5, (1aR,2R,12S,12a5)-N-(2,4-difluorobenzyl)-1,1-difluoro-9-hydroxy-8,10-dioxo-1a,2,3a,4,8,10,12,12a-octahydro-1H-2,12-methanocyclopropa[e]pyrido[1′,2′:4,5]pyrazino[2,1-b][1,3]oxazepine-7-carboxamide] | 1.6 | 50500
3 | O=C(NCc1ccc(F)cc1F)c1cn2c(c(O)c1=O)C(=O)N1C(C2)O[C@@H]2C[C@H]1[C@H]1C[C@H]12 (stereo partly drawn) [Compound 6, (1aR,2R,3aS,12S,12a5)-N-(2,4-difluorobenzyl)-9-hydroxy-8,10-dioxo-1a,2,3a,4,8,10,12,12a-octahydro-1H-2,12-methanocyclopropa[e]pyrido[1′,2′:4,5]pyrazino[2,1-b][1,3]oxazepine-7-carboxamide] | 1.5 | 14100
4 | O=C(N[C@@H](c1ccc(F)cc1F)C(F)(F)F)c1cn2c(c(O)c1=O)C(=O)N1[C@H](C2)O[C@@H]2C[C@H]1[C@H]1C[C@H]12 [Compound 2, (1aR,2R,3aS,12S,12aS)-N-((S)-1-(2,4-difluorophenyl)-2,2,2-trifluoroethyl)-9-hydroxy-8,10-dioxo-1a,2,3a,4,8,10,12,12a-octahydro-1H-2,12-methanocyclopropa[e]pyrido[1′,2′:4,5]pyrazino[2,1-b][1,3]oxazepine-7-carboxamide] | 10.7 | 7800
5 | O=C(N[C@@H](c1ccc(F)cc1F)C(F)(F)F)c1cn2c(c(O)c1=O)C(=O)N1[C@@H]3C[C@H](O[C@@H]1C2)[C@H]1C[C@H]13 [Compound 1, (1aS,2S,3aR,12R,12aR)-N-((S)-1-(2,4-difluorophenyl)-2,2,2-trifluoroethyl)-9-hydroxy-8,10-dioxo-1a,2,3a,4,8,10,12,12a-octahydro-1H-2,12-methanocyclopropa[e]pyrido[1′,2′:4,5]pyrazino[2,1-b][1,3]oxazepine-7-carboxamide] | 9.6 | 14100
6 | O=C(NCc1c(F)cc(F)cc1F)c1cn2c(c(O)c1=O)C(=O)N1[C@H](C2)[C@@H]2C[C@H]1[C@H]1C[C@@H]21 [Compound 9, (1aS,2S,10aS,11R,11aR)-5-hydroxy-4,6-dioxo-N-(2,4,6-trifluorobenzyl)-1a,2,4,6,10,10a,11,11a-octahydro-1H-2,11-methanocyclopropa[4,5]pyrido[1,2-a]pyrido[1,2-d]pyrazine-7-carboxamide] | 1.4 | 10700
7 | O=C(NCc1cc(F)c(F)cc1F)c1cn2c(c(O)c1=O)C(=O)N1C3CC([C@@H]4C[C@H]34)[C@@H]1C2 (stereo partly drawn) [Compound 13, (1aR,2R,10aR,11S,11a5)-5-hydroxy-4,6-dioxo-N-(2,4,5-trifluorobenzyl)-1a,2,4,6,10,10a,11,11a-octahydro-1H-2,11-methanocyclopropa[4,5]pyrido[1,2-a]pyrido[1,2-d]pyrazine-7-carboxamide] | 2.3 | 7050
8 | O=C(NCc1c(F)cc(F)cc1F)c1cn2c(c(O)c1=O)C(=O)N1[C@@H]3C[C@@H]([C@H]4C[C@H]43)[C@@H]1C2 [Compound 12, (1aR,2R,10aR,11S,11aS)-5-hydroxy-4,6-dioxo-N-(2,4,6-trifluorobenzyl)-1a,2,4,6,10,10a,11,11a-octahydro-1H-2,11-methanocyclopropa[4,5]pyrido[1,2-a]pyrido[1,2-d]pyrazine-7-carboxamide] | 2.9 | 22800
9 | O=C(NCc1c(F)cc(F)cc1F)c1cn2c(c(O)c1=O)C(=O)N1[C@@H]3C[C@H](O[C@@H]1C2)[C@H]1C[C@H]13 [Compound 10, (1aS,2S,3aR,12R,12aR)-9-hydroxy-8,10-dioxo-N-(2,4,6-trifluorobenzyl)-1a,2,3a,4,8,10,12,12a-octahydro-1H-2,12-methanocyclopropa[e]pyrido[1′,2′:4,5]pyrazino[2,1-b][1,3]oxazepine-7-carboxamide] | 1.7 | 7590
10 | C[C@@H](NC(=O)c1cn2c(c(O)c1=O)C(=O)N1C3CC(O[C@H]1C2)[C@@H]1C[C@H]31)c1ccc(F)cc1F (some centres unmarked) [Compound 4] | 8.4 | 12800
11 | O=C(NCc1c(F)cc(F)cc1F)c1cn2c(c(O)c1=O)C(=O)N1C(C2)O[C@@H]2C[C@H]1[C@H]1C[C@H]12 (stereo partly drawn) [Compound 11, (1aR,2R,10aR,11S,11a5)-5-hydroxy-4,6-dioxo-N-(2,4,6-trifluorobenzyl)-1a,2,4,6,10,10a,11,11a-octahydro-1H-2,11-methanocyclopropa[4,5]pyrido[1,2-a]pyrido[1,2-d]pyrazine-7-carboxamide] | 1.5 | 11000
12 | C[C@@H](NC(=O)c1cn2c(c(O)c1=O)C(=O)N1[C@@H]3C[C@H](O[C@@H]1C2)[C@H]1C[C@H]13)c1ccc(F)cc1F [Compound 3, (1aS,2S,3aR,12R,12aR)-N-((R)-1-(2,4-difluorophenyl)ethyl)-9-hydroxy-8,10-dioxo-1a,2,3a,4,8,10,12,12a-octahydro-1H-2,12-methanocyclopropa[e]pyrido[1′,2′:4,5]pyrazino[2,1-b][1,3]oxazepine-7-carboxamide] | 9.9 | 4100
13 | O=C(NCc1ccc(F)cc1F)c1cn2c(c(O)c1=O)C(=O)N1[C@@H]3C[C@H](O[C@@H]1C2)[C@H]1C[C@H]13 [Compound 7, (1aS,2S,3aR,12R,12aR)-N-(2,4-difluorobenzyl)-9-hydroxy-8,10-dioxo-1a,2,3a,4,8,10,12,12a-octahydro-1H-2,12-methanocyclopropa[e]pyrido[1′,2′:4,5]pyrazino[2,1-b][1,3]oxazepine-7-carboxamide] | 2.7 | 4830

Source: US10668064B2, “Polycyclic-carbamoylpyridone compounds and their pharmaceutical use” (Gilead Sciences, Inc., priority 2013, dated 2020)
